Source: US20250224410A1, “READY-TO-[…] FOR CHEMICAL ANALYSES AND QUANTIFICATION OF ANALYTES IN BIOLOGICAL SAMPLES” (PinPoint Testing, LLC, priority 2021, published 2025)
Entries after “also recorded” stand apart in the source; their conditions may differ.

Key:
[1] = system: beta glucuronidase purified from abalone tissue; assay: Storage stability of analytical standards in ready-to-use test kits at −20° C. with abalone beta-glucuronidase; type: physicochemical; settings: for stability of the standard in ready-to-use kits (free drug degradant peak area normalized to codeine): kits made with suspended solid state and solid state (direct enzyme interface, urine matrix interface) technology, snap frozen at −20° C., LC-MS/MS; for stability of the standard, suspended solid state technology / stability of the standard, urine matrix interface technology: up to 14 days
Protocol: (§1) Both (A) purified recombinant beta glucuronidase (KURA) and (B) beta glucuronidase purified from abalone tissue show similar results. Complete degradation was estimated by incubating the buprenorphine glucuronic acid standard under optimum reaction conditions for 1 hr. Negative controls were processed like that of mixed kits but excluded the respective beta-glucuronidase enzyme to measure non-specific degradation. All samples were extracted with acetonitrile prior to analysis using a liquid chromatography tandem mass spectrometry method optimized for buprenorphine. Where possible beta-glucuronidase enzyme was removed from suspended solid state, direct enzyme, and urine matrix samples prior to extraction. Acetonitrile was directly added to frozen mixed kits and negative controls to immediately degrade the beta glucuronidase enzyme. Removal of enzyme prior to extraction and the quick addition of acetonitrile limited degradation associated with sample processing and provided a better measurement of storage stability. Peak area of the degradant (free drug) was normalized to the response of codeine which was included to control for day-to-day and analytical variation. Data are presented as average±standard deviation (n=3-4). All experimental groups were manufactured and snap frozen at −20° C. prior to analysis.
FIG. 5. […] Negative controls were processed like that of mixed kits but excluded the respective beta-glucuronidase enzyme to measure non-specific degradation. Since 6-MAM was directly assayed complete degradation was estimated at the limit of detection (S/N≤10) established for the liquid chromatography tandem mass spectrometry method optimized for 6-MAM detection. All samples were extracted with acetonitrile prior to analysis. Where possible beta-glucuronidase enzyme was removed from suspended solid state, direct enzyme, and urine matrix samples prior to extraction. Acetonitrile was directly added to frozen mixed kits and negative controls to immediately degrade beta glucuronidase enzyme. Removal of enzyme prior to extraction and the quick addition of acetonitrile limited degradation associated with sample processing and provided a better measurement of storage stability. Peak area of 6-MAM was normalized to the response of codeine which was included to control for day-to-day and analytical variation. Data are presented as average±standard deviation (n=3-4). All experimental groups were manufactured and snap frozen at −20° C. prior to analysis.
(§2) Therefore, novel technology is required to stabilize process control specimens if ready-to-use formats are to be developed for analytical laboratories. Three new technologies (suspended solid state, direct enzyme interface, and urine matrix interface technology) were investigated to determine their utility in ready-to-use analytical test kit designs. While all three technologies afforded significant protection and stabilized the manufacturing process, only the suspended state and urine matrix technologies provided complete stability for 14 days in kits stored at −20° C.
(§3) The amount of degradation is independent of the source of the beta glucuronidase and remains constant for 14 days when kits are stored at −20° C. This storage temperature was selected because it is mostly commonly utilized by analytical testing laboratories. Degradation is specifically associated with manufacturing and storage because acetonitrile used for sample extraction was added immediately to frozen kits to degrade the beta-glucuronidase enzyme prior to sample processing and where possible (solid-state, direct enzyme interface, and matrix interface samples) the beta-glucuronidase enzyme was removed prior to sample extraction. These measures minimized any degradation that may have occurred during sample processing.

[2] = system: purified recombinant beta glucuronidase (KURA); assay: Storage stability of analytical standards in ready-to-use test kits at −20° C. with recombinant beta-glucuronidase; type: physicochemical; settings: for stability of the standard in ready-to-use kits (free drug degradant peak area normalized to codeine): kits made with suspended solid state and solid state (direct enzyme interface, urine matrix interface) technology, snap frozen at −20° C., LC-MS/MS
Protocol: as §1, §2, §3
A 48-well plate from Innovative Labs (48 Rectangular Well U-Bottom 42.60 mm Height, 4.6 mL capacity) was formulated with various combinations of a mixture of glucuronidated drugs purchased from Cerilliant, Round Rock Texas, US (see details in table below), abalone enzyme (item #CST208) from ChemSci technologies, Belvidere IL, USA, Recombinant B-One (item #B-One-100 mL) enzyme from Kura Bioscience, buffer solution made with 5 mL of acetic acid and 7.71 g of ammonium acetate in 995 mL of pure water, and blank urine (item #OH2060) from Golden West Diagnostics.
Wells E1, F1, G1, and H1 designated as “Kura Pos. control drugs+Enz” contain the glucuronide drug standards in 50 μL DMSO mixed with […] of water and […] of Kura enzyme. The materials in this well were stored in frozen state before use.
Wells A3, B3, C3, and D3 designated as “DB pop removed Kura” contain the glucuronide drug standards in 50 μL DMSO and a suspended frozen mixture of […] of water and […] of Kura enzyme (see example 5: manufacturing process D). The materials in this well were stored in frozen state before use and the frozen enzyme and water mixture was removed prior to analysis of the well contents.

[3] = mixed kits, snap frozen and stored at −20° C.
[4] = kits stored at −20° C., up to 14 days

Structure (SMILES): CO[C@]12CC[C@@]3(C[C@@H]1[C@](C)(O)C(C)(C)C)[C@H]1Cc4ccc(O[C@@H]5O[C@H](C(=O)O)[C@@H](O)[C@H](O)[C@H]5O)c5c4[C@@]3(CCN1CC1CC1)[C@H]2O5 [buprenorphine glucuronic acid standard, Buprenorphine-3-beta-D-glucuronide]
- stability of the standard in ready-to-use kits (free drug degradant peak area normalized to codeine) [1]: fully protected and stabilized
- stability of the standard in ready-to-use kits (free drug degradant peak area normalized to codeine) [2]: fully protected and stabilized

Structure (SMILES): C[N+](C)(CCC=C1c2ccccc2CCc2ccccc21)[C@@H]1O[C@H](C(=O)[O-])[C@@H](O)[C@@H](O)[C@H]1O [amitriptyline glucuronic acid standard, Amitriptyline N-beta-D-glucuronide]
- stability of the standard in ready-to-use kits (free drug degradant peak area normalized to codeine) [1]: fully protected and stabilized
- stability of the standard in ready-to-use kits (free drug degradant peak area normalized to codeine) [2]: fully protected and stabilized

Structure (SMILES): CC(=O)O[C@H]1C=C[C@H]2[C@H]3Cc4ccc(O)c5c4[C@@]2(CCN3C)[C@H]1O5 [6-MAM, 6-monoacetylmorphine]
- stability of the standard, direct enzyme interface technology ([1]; kits stored at −20° C.): slowed the rate of degradation but did not prevent 6-MAM degradation
- stability of the standard, suspended solid state technology ([1]; kits stored at −20° C.): fully protected; also recorded: fully protects and stabilizes
- stability of the standard, urine matrix interface technology ([1]; kits stored at −20° C.): slowed the rate of degradation but did not prevent 6-MAM degradation
- time to significant degradation in mixed kits ([1]; mixed kits stored at −20° C.): ≤ 4 days
- stability of the standard in kits that mix enzyme with the analytical standard [1, 3]: not stable
- degradation during the manufacturing process (day 0) in mixed kits ([1]; snap freezing at −20° C., day 0): no degradation occurred
- stability of the standard in kits that mix enzyme with the analytical standard [2, 3]: no 6-MAM degradation occurred

Structure (SMILES): O=C1Nc2ccc(Cl)cc2C(c2ccccc2Cl)=NC1O[C@@H]1O[C@H](C(=O)O)[C@@H](O)[C@H](O)[C@H]1O (stereo partly shown) [lorazepam glucuronic acid standard, Lorazepam glucuronide]
- stability of the standard in ready-to-use kits (free drug degradant peak area normalized to codeine) [1]: fully protected and stabilized
- day at which complete degradation occurred, direct enzyme interface technology ([1]; kits stored at −20° C.): 14 day
- day at which significant degradation was detected, direct enzyme interface technology ([1]; kits stored at −20° C.): 4 day
- storage time for which the standard was protected, direct enzyme interface technology ([1]; kits stored at −20° C.): 1 day
- stability of the standard, suspended solid state technology ([1]; kits stored at −20° C.): fully protected
- stability of the standard, urine matrix interface technology ([1]; kits stored at −20° C.): fully protected
- stability of the standard in ready-to-use kits (free drug degradant peak area normalized to codeine) [2]: fully protected and stabilized
- day at which complete degradation occurred, direct enzyme interface technology ([2]; kits stored at −20° C.): 14 day
- day at which significant degradation was detected, direct enzyme interface technology ([2]; kits stored at −20° C.): 4 day
- storage time for which the standard was protected, direct enzyme interface technology ([2]; kits stored at −20° C.): 1 day
- stability of the standard, suspended solid state technology [2, 4]: fully protected
- stability of the standard, urine matrix interface technology [2, 4]: fully protected

Structure (SMILES): CN1CC[C@]23c4c5ccc(O[C@@H]6O[C@H](C(=O)O)[C@@H](O)[C@H](O)[C@H]6O)c4O[C@H]2C(=O)CC[C@H]3[C@H]1C5 [hydromorphone glucuronic acid standard, Hydromorphone 3-beta-D-glucuronide]
- stability of the standard in ready-to-use kits (free drug degradant peak area normalized to codeine) [1]: fully protected and stabilized
- stability of the standard in ready-to-use kits (free drug degradant peak area normalized to codeine) [2]: fully protected and stabilized
